Biological target: T1, human KSP motor domain (KSP(367H)) (Homo sapiens, UniProt P52732)
T1 construct: were used to amplify the motor domain and the neck linker region; made in house; host or cells: E. coli BL21 (DE3), pRSETa
T1 sequence (P52732 18-359 limits assumed): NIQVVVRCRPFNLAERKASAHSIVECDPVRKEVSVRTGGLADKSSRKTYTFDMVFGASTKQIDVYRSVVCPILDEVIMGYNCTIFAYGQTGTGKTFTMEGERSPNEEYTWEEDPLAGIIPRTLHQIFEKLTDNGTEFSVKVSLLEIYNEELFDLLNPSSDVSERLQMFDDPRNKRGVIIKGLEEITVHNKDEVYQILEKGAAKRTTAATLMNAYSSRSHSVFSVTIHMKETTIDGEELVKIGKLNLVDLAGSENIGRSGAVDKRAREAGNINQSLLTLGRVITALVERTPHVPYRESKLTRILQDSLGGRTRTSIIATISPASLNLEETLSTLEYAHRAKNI
Test: Kinesin ATPase in vitro assay
Assay type: biochemical
Conditions: kinesin motor domain with microtubules, 1 mM ATP, 23° C.; free phosphate by quinaldine red/ammonium molybdate, absorbance 540 nm
From the text: I. Kinesin ATPase In Vitro Assay
Cloning and Expression of Human Poly-histidine Tagged KSP Motor Domain_(KSP(367H))
Plasmids for the expression of the human KSP motor domain construct were cloned by PCR using a pBluescript full length human KSP construct (Blangy et al., Cell, vol. 83, pp 1159-1169, 1995) as a template. The N-terminal primer 5′-[…] (SEQ. ID. NO.: 1) and the C-terminal primer 5′-[…] […] (SEQ. ID. NO.: 2) were used to amplify the motor domain and the neck linker region. The PCR products were digested with AseI and XhoI, ligated into the NdeI/XhoI digestion product of pRSETa (Invitrogen) and transformed into E. coli BL21 (DE3).
Cells were grown at 37° C. to an OD600 of 0.5. After cooling the culture to room temperature expression of KSP was induced with 100 μM IPTG and incubation was continued overnight. Cells were pelleted by centrifugation and washed once with ice-cold PBS. Pellets were flash-frozen and stored −80° C.
Cell pellets were thawed on ice and resuspended in lysis buffer (50 mM K-HEPES, pH 8.0, 250 mM KCl, 0.1% Tween, 10 mM imidazole, 0.5 mM Mg-ATP, 1 mM PMSF, 2 mM benzimidine, 1× complete protease inhibitor cocktail (Roche)). Cell suspensions were incubated with 1 mg/ml lysozyme and 5 mM β-mercaptoethanol on ice for 10 minutes, followed by sonication (3×30 sec). All subsequent procedures were performed at 4° C. Lysates were centrifuged at 40,000×g for 40 minutes. Supernatants were diluted and loaded onto an SP Sepharose column (Pharmacia, 5 ml cartridge) in buffer A (50 mM K-HEPES, pH 6.8, 1 mM MgCl2, 1 mM EGTA, 10 μM Mg-ATP, 1 mM DTT) and eluted with a 0 to 750 mM KCl gradient in buffer A. Fractions containing KSP were pooled and incubated with Ni-NTA resin (Qiagen) for one hour. The resin was washed three times with buffer B (Lysis buffer minus PMSF and protease inhibitor cocktail), followed by three 15-minute incubations and washes with buffer B. Finally, the resin was incubated and washed for 15 minutes three times with buffer C (same as buffer B except for pH 6.0) and poured into a column. KSP was eluted with elution buffer (identical to buffer B except for 150 mM KCl and 250 mM imidazole). KSP-containing fractions were pooled, made 10% in sucrose, and stored at −80° C.
Microtubules are prepared from tubulin isolated from bovine brain. Purified tubulin (>97% MAP-free) at 1 mg/ml is polymerized at 37° C. in the presence of 10 μM paclitaxel, 1 mM DTT, 1 mM GTP in BRB80 buffer (80 mM K-PIPES, 1 mM EGTA, 1 mM MgCl2 at pH 6.8). The resulting microtubules are separated from non-polymerized tubulin by ultracentrifugation and removal of the supernatant. The pellet, containing the microtubules, is gently resuspended in 10 μM paclitaxel, 1 mM DTT, 50 μg/ml ampicillin, and 5 μg/ml chloramphenicol in BRB80.
The kinesin motor domain is incubated with microtubules, 1 mM ATP (1:1 MgCl2: Na-ATP), and compound at 23° C. in buffer containing 80 mM K-HEPES (pH 7.0), 1 mM EGTA, 1 mM DTT, 1 mM MgCl2, and 50 mM KCl. The reaction is terminated by a 2-10 fold dilution with a final buffer composition of 80 mM HEPES and 50 mM EDTA (or, alternately, with a 1:1 addition of reaction volume to stop buffer (1.8M KCl and 50 mM EDTA)). Free phosphate from the ATP hydrolysis reaction is measured via a quinaldine red/ammonium molybdate assay by adding a 1.5 times volume of quench C (e.g., to a mixture of 40 μl reaction volume+40 μl stop buffer is then added 120 μl quench C). Quench A contains 0.1 mg/ml quinaldine red and 0.14% polyvinyl alcohol; quench B contains 12.3 mM ammonium molybdate tetrahydrate in 1.15 M sulfuric acid. Quench C is a 2:1 ratio of quench A:quench B The reaction is incubated for 5-10 minutes at 23° C., and the absorbance of the phospho-molybdate complex is measured at 540 nm.

IC50, ≤ 50 µM:
CN1CC(=O)N2[C@@H](C1)C(c1cc(F)ccc1F)=C[C@H]2c1ccccc1 (racemic) [Compound 4-1, (±)-(6S,8aR and 6R,8aS)-8-(2,5-Difluorophenyl)-2-methyl-6-phenyl-2,3,6,8a-tetrahydropyrrolo[1,2-a]pyrazin-4(1H)-one]
O=C1NCC2C(c3cc(F)ccc3F)=CC(c3ccccc3)N12 (racemic) [Compound 2-4a, (±)-7-(2,5-Difluorophenyl)-5-phenyl-1,2,5,7a-tetrahydro-3H-pyrrolo[1,2-c]imidazol-3-one]
CCN(CC)CCN1C[C@H]2C(c3cc(F)ccc3F)=C[C@@H](c3ccccc3)N2C1=O (racemic) [Compound 2A-1d, (±)-(5S,7aR)-7-(2,5-Difluorophenyl)-2-[2-(diethylamino)ethyl]-5-phenyl-1,2,5,7a-tetrahydro-3H-pyrrolo[1,2-c]imidazol-3-one]
CCN1C[C@H]2C(c3cc(F)ccc3F)=C[C@@H](c3ccccc3)N2C1=O (racemic) [Compound 2A-1b, (±)-(5S,7aR)-7-(2,5-Difluorophenyl)-2-ethyl-5-phenyl-1,2,5,7a-tetrahydro-3H-pyrrolo[1,2-c]imidazol-3-one]
O=C1CNCC2C(c3cc(F)ccc3F)=CC(c3ccccc3)N12 (racemic) [Compound 3-2b, (±)-(2S,5S and 2R,5R)-7-(2,5-Difluorophenyl)-5-phenyl-1,2,5,7a-tetrahydro-3H-pyrrolo[1,2-a]pyrazin-4(1H)-one]
CN1C[C@H]2C(c3cc(F)ccc3F)=C[C@@H](c3ccccc3)N2C1=O (racemic) [Compound 2A-1a, (±)-(5S,7aR)-7-(2,5-Difluorophenyl)-2-methyl-5-phenyl-1,2,5,7a-tetrahydro-3H-pyrrolo[1,2-c]imidazol-3-one]
CN(C)CCN1C[C@H]2C(c3cc(F)ccc3F)=C[C@@H](c3ccccc3)N2C1=O (racemic) [Compound 2A-1c, (±)-(5S,7aR)-7-(2,5-Difluorophenyl)-2-[2-(dimethylamino)ethyl]-5-phenyl-1,2,5,7a-tetrahydro-3H-pyrrolo[1,2-c]imidazol-3-one]
O=C1CNC[C@H]2C(c3cc(F)ccc3F)=C[C@@H](c3ccccc3)N12 (racemic) [Compound 3-2a, (±)-(2S,5R and 2R,5S)-7-(2,5-Difluorophenyl)-5-phenyl-1,2,5,7a-tetrahydro-3H-pyrrolo[1,2-a]pyrazin-4(1H)-one]
O=C1CN2[C@@H](CN1)C(c1cc(F)ccc1F)=C[C@H]2c1ccccc1 (racemic) [Compound 5-1, (±)-(6S,8aR and 6R,8aS)-8-(2,5-Difluorophenyl)-6-phenyl-1,2,6,8a-tetrahydropyrrolo[1,2-a]pyrazin-3(4H)-one]
O=C1OCC2C(c3cc(F)ccc3F)=CC(c3ccccc3)N12 (racemic) [Compound 1-9a, (±)-(5S,7aR and 5R,7aS)-7-(2,5-Difluorophenyl)-5-phenyl-2,7a-dihydro-1H-pyrrole[1,2-c][1,3]oxazol-3-one]

Source: patent publication US7427637B2, “Mitotic kinesin inhibitors” (Merck & Co. Inc., priority 2003, dated 2008)
